This is an account of results in patent publication US7666901B2, “Analogs of 17-hydroxywortmannin as PI3K inhibitors” (Wyeth, priority 2004, dated 2010).

For one assay, the target named is T1, Human TOR (Homo sapiens, UniProt P42345).
T1 construct: FLAG
The assay can be described thus: Human TOR (mTOR) kinase assay, DELFIA format. The format is biochemical. The gist of the method: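 Purified FLAG-TOR (800 ng/mL) phosphorylates His6-S6K ([…]) with […] ATP in Hepes pH 7.4 buffer containing MnCl2, 2 h at room temperature. Phospho-Thr389 S6K detected by DELFIA using Europium-labelled anti-P(T389)-p70S6K antibody; enzyme inhibition calculated from signal.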

The test system of another assay is T2, PI3K.
T2 construct: PI3K FP IC50
The assay can be described thus: Fluorescence polarization assay for PI3K. To be noted: for IC50: Table 2. The format is biochemical. As for the experimental part:
This assay is used to determine the IC50 of compounds of the present invention as it identifies inhibitors of PI3 kinase by measuring inhibition.
The assay is run by placing 5 μL of diluted enzyme per well, then 5 μL of diluted compound (or 9.5 μL enzyme then 0.5 μL compound in DMSO) is added and mixed. Then, 10 μL substrate is added to start the reaction. The samples are incubated 30-60 minutes, then the reaction is stopped by adding 20 μL stop/detector mix.
PI3K is diluted with reaction buffer (e.g., 5 μL or 7.5 μL PI3K into 620 μL reaction buffer), and 5 μL of diluted enzyme is used per well. 5 μL reaction buffer or drug diluted in buffer (e.g., 4 μL/100 so final DMSO is 1% in reaction) is added to each. The samples are mixed by pipetting up and down. Alternatively, the enzyme can be diluted to 1215 μL. In this case 9.8 μL is added per well and 0.2 μL compound is added in DMSO.
To prepare 1 mL of substrate solution, 955 μL reaction buffer, 40 μL PIP2, and 2.5 μL ATP are mixed. 10 μL of substrate is added to each well to start the reaction.
Stop/detector mix is prepared by mixing 4 μL Red detector and 1.6 μL or 2.0 μL GST-GRP with 1 mL Stop buffer, which results in 10 nM probe and 70 nM GST-GRP). 20 μL of the stop/detector mix is added to each well to stop the reaction. The plates are read after 30-90 minutes keeping the red probe solutions dark.
For the zero time point, stop/detector mix is added to the enzyme just before adding substrate. For an extra control, stop/detector mix is added to buffer (no enzyme) and substrate or to just buffer (no substrate).
The recommended reaction has 0.06 μL per 20 μL (0.015 μg/20 μL) or 0.01125 μg/15 μL or 0.75 μg/mL.
Plates are read on machines with filters for Tamra. The units are mP with no enzyme controls reading app 190-220 mP units. Fully active enzyme reduces fluorescence polarization down to 70-100 mP after 30 minutes. An active cpd raises the mP values halfway to control or to 120-150 mP units.
(Fluorescence polarisation rises when a labelled molecule tumbles more slowly, as on binding a larger partner.)

The test system of assay [1] is phosphor-AKT (S473) in Rat1 cells. The assay can be described thus: Rat1-IGF1 assay (IGF-1 induced phospho-AKT immunoblot). The settings on record: Rattus norvegicus. Type of assay: cell-based, rat. How it is done:
Rat1 cells are plated in 6-well culture plates and serum-starved for 24 hours. Serum-starved cells are treated either with control vehicle or with various concentrations of 17-HWT for 2 hours, stimulated by IGF-1 (100 ng/mL) for 30 minutes. Total cellular lysates are prepared using NuPAGE-LDS sample buffer (Invitrogen), sonicated and then clarified by centrifugation. Equal amounts of proteins are subject to immunoblotting analysis using NuPAGE electrophoresis system and probed with phosphor-AKT (S473), total AKT antibodies (Signaling Technology).
For orientation: In western blotting, separated proteins are transferred to a membrane and probed.

The test system of assay [2] is LNCaP (human prostate carcinoma). The assay can be described thus: Cell proliferation (MTS) assay, LNCaP. The format is cell-based. The settings on record: Homo sapiens, LNCaP, 72 h, three days treatment. The gist of the method: (§1)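 Cells plated at about 3000 per well in RPMI-1640/10% FBS were dosed with compound one day later. Viability was read by MTS conversion (absorbance 490 nm, 1–2 h) three days after treatment began. Effect is expressed as percent of vehicle-treated growth on the same plate.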

Assay [3] relates to MDA468 (human breast cancer cell). The assay can be described thus: Cell proliferation (MTS) assay, MDA468. Type of assay: cell-based. To be noted: Homo sapiens, 72 h, three days treatment. The procedure, abridged:
as §1

Assay [4] concerns MDA435 (human breast adenocarcinoma). The assay can be described thus: Cell proliferation (MTS) assay, MDA435. Type of assay: cell-based. The settings on record: Homo sapiens, MDA435, 72 h, three days treatment. The gist of the method:
as §1

Assay [5] deals with DU145 (human prostate carcinoma/lymphocytic leukemia). The assay can be described thus: Cell proliferation (MTS) assay, DU145. Type of assay: cell-based. To be noted: Homo sapiens, DU-145, 72 h, three days treatment. The gist of the method: as §1

Values after ≈ are worked out from the molar mass of the structure shown.

Usually IC50 stands for the concentration needed to halve the response being measured. High values mean weaker potency, low ones greater potency. Regarding `COC[C@H]1OC(=O)/C(=C/Nc2ccccc2)C2=C(O)C(=O)C3=C([C@H](OC(C)=O)C[C@]4(C)[C@@H](O)CC[C@@H]34)[C@]21C` [Compound 3, (1E,4S,4aR,5R,6aS,7S,9aR)-1-(anilinomethylene)-7,11-dihydroxy-4-(methoxymethyl)-4a,6a-dimethyl-2,10-dioxo-1,2,4,4a,5,6,6a,7,8,9,9a,10-dodecahydroindeno[4,5-h]isochromen-5-yl acetate], the IC50 is 9170 nM against Human TOR (Table 1); greater than 0.1 µg/mL in assay [1] (Table 1); 3.5 µg/mL in assay [2] (Table 1); 5 µg/mL in assay [3] (Table 1); 15 µg/mL in assay [4] (Table 1); 12 µg/mL in assay [5] (Table 1). The “PI3K FP IC50” value with PI3K (Table 1) was 0.228 µg/mL.
Turning to `COCC1OC(=O)C(=CN(CCO)CCO)C2=C(O)C(=O)C3=C(C(OC(C)=O)CC4(C)C(O)CCC34)C21C` (stereo not shown) [Compound 19, Acetic acid 4-{[bis-(2-hydroxy-ethyl)-amino]-methylene}-6,17-dihydroxy-1-methoxymethyl-10,13-dimethyl-3,7-dioxo-1,3,4,7,10,11,12,13,14,15,16,17-dodecahydro-2-oxa-cyclopenta[a]phenanthren-11-yl ester], the IC50 on Human TOR (Table 2) is greater than 18700 nM; in the assay on PI3K, 918 nM; in assay [1] (Table 2), greater than 0.1 µg/mL; in assay [2] (Table 2) it was 0.07 µg/mL (≈ 0.131 µM); in assay [3] (Table 2), 1.2 µg/mL (≈ 2.24 µM); in assay [4] (Table 2), 6 µg/mL (≈ 11.2 µM). In addition, half-maximal inhibition in assay [5] (Table 2) (IC50) was put at 1.7 µg/mL (≈ 3.17 µM).
As for `COCC1OC(=O)C(=CN(C)C(C)(C)C)C2=C(O)C(=O)C3=C(C(OC(C)=O)CC4(C)C(O)CCC34)C21C` (stereo not shown) [Compound 20, Acetic acid 4-[(tert-butyl-methyl-amino)-methylene]-6,17-dihydroxy-1-methoxymethyl-10,13-dimethyl-3,7-dioxo-1,3,4,7,10,11,12,13,14,15,16,17-dodecahydro-2-oxa-cyclopenta[a]phenanthren-11-yl ester], the IC50 at Human TOR (Table 2) is greater than 19300 nM; with PI3K, 440 nM; in assay [1] (Table 2), greater than 0.1 µg/mL; in assay [2] (Table 2), 0.06 µg/mL (≈ 0.116 µM); in assay [3] (Table 2), 0.62 µg/mL (≈ 1.2 µM); in assay [4] (Table 2), 5 µg/mL (≈ 9.66 µM). In assay [5] (Table 2), this compound displayed an IC50 of 1.1 µg/mL (≈ 2.13 µM).
`COCC1OC(=O)C(=CN(CCCN(C)C)CCCN(C)C)C2=C(O)C(=O)C3=C(C(OC(C)=O)CC4(C)C(O)CCC34)C21C` (stereo not shown) [Compound 21, Acetic acid 4-{[bis-(3-dimethylamino-propyl)-amino]-methylene}-6,17-dihydroxy-1-methoxymethyl-10,13-dimethyl-3,7-dioxo-1,3,4,7,10,11,12,13,14,15,16,17-dodecahydro-2-oxa-cyclopenta[a]phenanthren-11-yl ester]: the 50% inhibitory concentration (IC50) on Human TOR (Table 2) was 3560 nM; in the assay on PI3K, 22 nM; in assay [1] (Table 2), 0.1 µg/mL (≈ 0.162 µM); in assay [2] (Table 2), 0.16 µg/mL (≈ 0.259 µM); in assay [3] (Table 2), 3.9 µg/mL (≈ 6.31 µM); in assay [4] (Table 2), 11 µg/mL (≈ 17.8 µM). In addition, in assay [5] (Table 2), it took 12 µg/mL (≈ 19.4 µM) to reach half-maximal inhibition (IC50).
Regarding `COCC1OC(=O)C(=CN2CCC(C(=O)OC)CC2)C2=C(O)C(=O)C3=C(C(OC(C)=O)CC4(C)C(O)CCC34)C21C` (stereo not shown) [Compound 22, 1-(11-Acetoxy-6,17-dihydroxy-1-methoxymethyl-10,13-dimethyl-3,7-dioxo-1,7,10,11,12,13,14,15,16,17-decahydro-2-oxa-cyclopenta[a]phenanthren-4-ylidenemethyl)-piperidine-4-carboxylic acid methyl ester], the IC50 on Human TOR (Table 2) was 1690 nM; in the assay on PI3K it was 52 nM; in assay [1] (Table 2), 0.1 µg/mL (≈ 0.174 µM); in assay [2] (Table 2), 0.29 µg/mL (≈ 0.506 µM); in assay [3] (Table 2), 3.5 µg/mL (≈ 6.1 µM); in assay [4] (Table 2) it was 18 µg/mL (≈ 31.4 µM). For the same compound, it took 17 µg/mL (≈ 29.6 µM) to reach half-maximal inhibition in assay [5] (Table 2) (IC50).
As to `COCC1OC(=O)C(=CN2CCC(=O)CC2)C2=C(O)C(=O)C3=C(C(OC(C)=O)CC4(C)C(O)CCC34)C21C` (stereo not shown) [Compound 44, Acetic acid 6,17-dihydroxy-1-methoxymethyl-10,13-dimethyl-3,7-dioxo-4-(4-oxo-piperidin-1-ylmethylene)-1,3,4,7,10,11,12,13,14,15,16,17-dodecahydro-2-oxa-cyclopenta[a]phenanthren-11-yl ester], the IC50 is 1110 nM at Human TOR (Table 2); 60.2 nM in the assay on PI3K; 0.02 µg/mL (≈ 0.0378 µM) in assay [1] (Table 2); 0.37 µg/mL (≈ 0.699 µM) in assay [2] (Table 2); 3 µg/mL (≈ 5.66 µM) in assay [3] (Table 2).
For `CCN(C=C1C(=O)OC(COC)C2(C)C3=C(C(=O)C(O)=C12)C1CCC(O)C1(C)CC3)CCN(C)C` (stereo not shown) [Compound 45, 4-{[(2-Dimethylamino-ethyl)-ethyl-amino]-methylene}-6,17-dihydroxy-1-methoxymethyl-10,13-dimethyl-10,11,12,13,14,15,16,17-octahydro-1H,4H-2-oxa-cyclopenta[a]phenanthrene-3,7-dione], the IC50 at Human TOR (Table 2) is greater than 20500 nM; in the assay with PI3K it was 369 nM; in assay [1] (Table 2), 0.1 µg/mL (≈ 0.205 µM); in assay [2] (Table 2), 0.65 µg/mL (≈ 1.33 µM); in assay [3] (Table 2) it was 5 µg/mL (≈ 10.2 µM).
Regarding `CCN(C=C1C(=O)OC(COC)C2(C)C1=C(O)C(=O)C1=C2C(OC(C)=O)CC2(C)C(O)CCC12)CCN(C)C` (stereo not shown) [Compound 46, Acetic acid 4-{[(2-dimethylamino-ethyl)-ethyl-amino]-methylene}-6,17-dihydroxy-1-methoxymethyl-10,13-dimethyl-3,7-dioxo-1,3,4,7,10,11,12,13,14,15,16,17-dodecahydro-2-oxa-cyclopenta[a]phenanthren-11-yl ester], the half-inhibitory concentration (IC50) against Human TOR (Table 2) is 878 nM; in the assay with PI3K, 5.1 nM; in assay [1] (Table 2) it was 0.02 µg/mL (≈ 0.0366 µM); in assay [2] (Table 2) it was 0.65 µg/mL (≈ 1.19 µM); in assay [3] (Table 2), 3.3 µg/mL (≈ 6.04 µM).
On the same counts, the results for `COCC1OC(=O)C(=CN2CCC(N3CCCCC3)CC2)C2=C(O)C(=O)C3=C(C(OC(C)=O)CC4(C)C(O)CCC34)C21C` (stereo not shown) [Compound 47, Acetic acid 4-[1,4′]bipiperidinyl-1′-ylmethylene-6,17-dihydroxy-1-methoxymethyl-10,13-dimethyl-3,7-dioxo-1,3,4,7,10,11,12,13,14,15,16,17-dodecahydro-2-oxa-cyclopenta[a]phenanthren-11-yl ester] are 568 nM, 63.3 nM, 0.05 µg/mL (≈ 0.0835 µM), 0.9 µg/mL (≈ 1.5 µM) and 5.8 µg/mL (≈ 9.69 µM).
For the compound `COCC1OC(=O)C(=CN2CCOCC2)C2=C(O)C(=O)C3=C(C(OC(C)=O)CC4(C)C(O)CCC34)C21C` (stereo not shown) [Compound 48, Acetic acid 6,17-dihydroxy-1-methoxymethyl-10,13-dimethyl-4-morpholin-4-ylmethylene-3,7-dioxo-1,3,4,7,10,11,12,13,14,15,16,17-dodecahydro-2-oxa-cyclopenta[a]phenanthren-11-yl ester], the IC50 against Human TOR (Table 2) was 831 nM; in the assay on PI3K, 36.1 nM; in assay [1] (Table 2), 0.02 µg/mL (≈ 0.0386 µM); in assay [2] (Table 2), 0.5 µg/mL (≈ 0.966 µM); in assay [3] (Table 2), 3 µg/mL (≈ 5.8 µM).
Take `CCN(/C=C1/C(=O)O[C@H](COC)[C@@]2(C)C1=C(O)C(=O)C1=C2[C@H](O)C[C@]2(C)[C@@H](O)CC[C@@H]12)CC` [Compound 50, (1E,4S,4aR,5R,6aS,7S,9aR)-1-[(diethylamino)methylene]-5,7,11-trihydroxy-4-(methoxymethyl)-4a,6a-dimethyl-4a,5,6,6a,7,8,9,9a-octahydroindeno[4,5-h]isochromene-2,10(1H,4H)-dione]: the IC50 in the assay with PI3K is 7580 nM; in assay [1] (Table 2), greater than 0.1 µg/mL; in assay [2] (Table 2), 0.25 µg/mL (≈ 0.542 µM); in assay [3] (Table 2), 2.5 µg/mL (≈ 5.42 µM).
